From ChEMBL document CHEMBL1201862, “PubChem BioAssay data set” (2004) come the findings set out here.

SMILES strings stand for the structures.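 A five-concentration, 48-hour dose response in 96-well plates underlies each endpoint, interpolated linearly between surrounding concentrations. Here, GI50 denotes the concentration required for 50% inhibition of growth.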 The source made the active and inactive calls. No stated cut-off is given here; in the data, active = GI50 up to about 1.1 µM and inactive = higher.

Some test systems named below: HCC 2998; MOLT-4; SK-OV-3; NCI-H460; HCT-116; SR; MCF7; A549; M14; TK-10; CCRF-CEM; 786-0; UACC-257; OVCAR-8; HOP-62; SK-MEL-28; UO-31; RPMI-8226; U-251.
Common to all, as to assay: growth of human tumour cells (NCI), 48 h

Take `COc1ccc(-c2c3c(n(C4OC(CO)C(O)C(O)C4O)c(=S)c2C#N)CCCC3)cc1` (stereo not given): the GI50 with HCC 2998 was > 100 µM (inactive); in the experiment on MOLT-4 it was 73.1 µM (inactive); in the experiment on SK-OV-3, > 100 µM (inactive); in the experiment on NCI-H460 it was > 100 µM (inactive); with HCT-116 it was > 100 µM (inactive); in the experiment on SR it was > 100 µM (inactive). The GI50 with MCF7 is > 100 µM (inactive); in the experiment on A549, > 100 µM (inactive); with M14, > 100 µM (inactive); in the experiment on TK-10 it was > 100 µM (inactive); in the experiment with CCRF-CEM it was 52 µM (inactive); in the experiment on 786-0, > 100 µM (inactive). Further, the GI50 in the experiment on UACC-257, with OVCAR-8 and in the experiment with HOP-62 was > 100 µM (inactive) throughout.

As for `CCN(CCCOc1ccccc1)CCN(CC)CCCOc1ccccc1`, the GI50 in the experiment with SK-MEL-28 was 15.1 µM (inactive); in the experiment with HCC 2998, 8.69 µM (inactive); in the experiment with MOLT-4, 2.57 µM (inactive); in the experiment on NCI-H460 it was 8.38 µM (inactive); in the experiment with HCT-116, 11.7 µM (inactive); in the experiment with SR, 8.26 µM (inactive). Moreover, the GI50 with MCF7 is 30.8 µM (inactive); in the experiment on UO-31, 10.2 µM (inactive); in the experiment on A549, 12.8 µM (inactive); with RPMI-8226, 0.249 µM (active); with M14 it was 11.5 µM (inactive); in the experiment on TK-10, 12.7 µM (inactive). In addition, the GI50 in the experiment on CCRF-CEM was 0.71 µM (active); in the experiment with 786-0, 18.4 µM (inactive); in the experiment on UACC-257, 16.2 µM (inactive); with OVCAR-8, 15.7 µM (inactive); with U-251, 12.9 µM (inactive); in the experiment on HOP-62, 20.4 µM (inactive).

For the compound `O=[N+]([O-])c1cccc(-c2nc(-c3ccccc3)c(-c3ccccc3)[nH]2)c1`, the GI50 in the experiment on SK-MEL-28, in the experiment on HCC 2998, in the experiment with MOLT-4, in the experiment with SK-OV-3, in the experiment on NCI-H460 and in the experiment with HCT-116 was > 100 µM (inactive) each time. For the same compound, the GI50 with SR, in the experiment with MCF7, in the experiment with UO-31, in the experiment with A549, in the experiment with RPMI-8226 and in the experiment with M14 was > 100 µM (inactive) in each case. Further, the GI50 with TK-10, with CCRF-CEM, with 786-0, in the experiment with UACC-257, in the experiment on OVCAR-8 and with U-251 was > 100 µM (inactive) in each case. In addition, the GI50 with HOP-62 is > 100 µM (inactive).

In the case of `Cc1ccc(S(=O)(=O)N(CCNC(=O)c2cccc(O)c2O)c2cc3c4c(c2)Oc2cccc5c2C4(C)c2c(cccc2O3)O5)cc1`, the GI50 in the experiment on SK-MEL-28 was 53.6 µM (inactive); with HCC 2998 it was > 100 µM (inactive); with MOLT-4 it was > 100 µM (inactive); in the experiment with SK-OV-3, 57.1 µM (inactive); with NCI-H460, > 100 µM (inactive); in the experiment with HCT-116 it was 28.8 µM (inactive). The GI50 was 14.6 µM (inactive) in the experiment with SR; 29.9 µM (inactive) in the experiment on MCF7; > 100 µM (inactive) in the experiment with UO-31; 20.9 µM (inactive) in the experiment with A549; > 100 µM (inactive) in the experiment on RPMI-8226; > 100 µM (inactive) in the experiment on M14. The GI50 is > 100 µM (inactive) with TK-10; > 100 µM (inactive) in the experiment with 786-0; > 100 µM (inactive) in the experiment with UACC-257; > 100 µM (inactive) with OVCAR-8; 8.83 µM (inactive) with U-251; 55.6 µM (inactive) in the experiment on HOP-62.
